Measurements: ChEMBL document CHEMBL5518232, “Discovery of New Tricyclic Oxime Sampangine Derivatives as Potent Antifungal Agents for the Treatment of Cryptococcosis and Candidiasis” (J Med Chem, 2024)
Converted amounts (≈) assume the structure as drawn. Blank lines part the entries; values can stand above or below the compound they belong to. The source made the active and inactive calls. The calls are words filed in the database; no cut-off is given here.

Assays:
Cryptococcus neoformans [1] = experiment: Antifungal activity against Cryptococcus neoformans assessed as reduction in fungal growth incubated for 24 hrs by broth microdilution method; format: functional
Candida albicans [2] = experiment: Antifungal activity against Candida albicans assessed as reduction in fungal growth incubated for 24 hrs by broth microdilution method; format: functional
Candida albicans [3] = experiment: Antifungal activity against Candida albicans SC5314 assessed as reduction in fungal growth incubated for 48 hrs by liquid based microdilution method; format: functional
Candida albicans [4] = experiment: Antifungal activity against Candida albicans 0304103 assessed as reduction in fungal growth incubated for 48 hrs by liquid based microdilution method; format: functional
Candida tropicalis [5] = experiment: Antifungal activity against Candida tropicalis 10186 assessed as reduction in fungal growth incubated for 48 hrs by liquid based microdilution method; format: functional
Nakaseomyces glabratus = experiment: Antifungal activity against Candida glabrata 9073 assessed as reduction in fungal growth incubated for 48 hrs by liquid based microdilution method; format: functional
Cryptococcus neoformans [6] = experiment: Antifungal activity against Cryptococcus neoformans H99 assessed as reduction in fungal growth incubated for 72 hrs by liquid based microdilution method; format: functional
Cryptococcus neoformans [7] = experiment: Antifungal activity against Cryptococcus neoformans ATCC 34877 assessed as reduction in fungal growth incubated for 72 hrs by liquid based microdilution method; format: functional
[8] = Antifungal activity against Cryptococcus gattii VGI ATCC 14116 assessed as reduction in fungal growth incubated for 72 hrs by liquid based microdilution method; format: functional
Candida albicans [9] = experiment: Synergistic antifungal activity against Candida albicans 0304103 assessed as inhibition of fungal growth incubated for 48 hrs in presence of fluconazole by checkerboard microdilution assay; format: functional
Candida albicans [10] = experiment: Synergistic antifungal activity against Candida albicans 0304103 assessed as fractional inhibitory concentration index by measuring ratio of MIC80 for compound and synergetic / MIC80 for compound alone + MIC80 for fluconazole synergetic / MIC80 for fluconazole alone; format: functional
Candida tropicalis [11] = experiment: Synergistic antifungal activity against Candida tropicalis 10186 assessed as inhibition of fungal growth incubated for 48 hrs in presence of fluconazole by checkerboard microdilution assay; format: functional, organism-based
Pichia kudriavzevii = experiment: Synergistic antifungal activity against Candida krusei 10153 assessed as inhibition of fungal growth incubated for 48 hrs in presence of fluconazole by checkerboard microdilution assay; format: functional, organism-based
Candida parapsilosis = experiment: Synergistic antifungal activity against Candida parapsilosis 20090 assessed as inhibition of fungal growth incubated for 48 hrs in presence of fluconazole by checkerboard microdilution assay; format: functional, organism-based
Clavispora lusitaniae = experiment: Synergistic antifungal activity against Candida lusitaniae 9150 assessed as inhibition of fungal growth incubated for 48 hrs in presence of fluconazole by checkerboard microdilution assay; format: functional, organism-based
[Candida] auris = Synergistic antifungal activity against Candida auris 0029 assessed as inhibition of fungal growth incubated for 48 hrs in presence of fluconazole by checkerboard microdilution assay; format: functional, organism-based; conditions: Candidozyma auris
Cryptococcus neoformans [12] = experiment: Antifungal activity against Cryptococcus neoformans H99 assessed as inhibition of fungal growth incubated for 72 hrs by time growth curve assay; format: functional, organism-based; conditions: dose 0.13-2 µg/ml
Cryptococcus neoformans [13] = experiment: Antifungal activity against Cryptococcus neoformans H99 assessed as log reduction in fungal growth at 2 ug/ml incubated for 72 hrs by time growth curve assay (reference value: 7.65 log10CFU/ml); format: functional; conditions: dose 2 µg/ml
Candida albicans [14] = experiment: Antifungal activity against Candida albicans 0304103 assessed as inhibition of fungal growth at 32 ug/ml incubated for 72 hrs by time growth curve assay; format: functional, organism-based; conditions: dose 32.0 µg/ml
Candida albicans [15] = experiment: Antifungal activity against Candida albicans 0304103 assessed as inhibition of fungal growth at 8 ug/ml incubated for 48 hrs in presence of fluconazole by time growth curve assay; format: functional, organism-based; conditions: dose 8.0 µg/ml
Candida albicans [16] = experiment: Antifungal activity against Candida albicans 0304103 assessed as log reduction in fungal growth at 8 ug/ml incubated for 48 hrs by time growth curve assay (reference value: 7.38 log10CFU/ml); format: functional; conditions: dose 8 µg/ml
Cryptococcus neoformans [17] = experiment: Antifungal activity against Cryptococcus neoformans H99 assessed as inhibition of capsule growth at 0.063 to 2 ug/ml measured after 24 hrs by laser confocal microscopy based analysis; format: functional, organism-based; conditions: dose 0.063-2 µg/ml
Cryptococcus neoformans [18] = experiment: Antifungal activity against Cryptococcus neoformans H99 assessed as inhibition of capsule growth 2 ug/ml measured after 24 hrs by laser confocal microscopy based analysis relative to control; format: functional; design: scale not given: the % may be the effect or the level left; conditions: dose 2 µg/ml
Cryptococcus neoformans [19] = experiment: Inhibition of biofilm formation in Cryptococcus neoformans H99 at 0.063 ug/ml incubated for 24 hrs by microplate based analysis relative to control; format: functional
Candida albicans [20] = experiment: Inhibition of biofilm formation in Candida albicans 0304103 at 2 ug/ml incubated for 24 hrs by microplate based analysis relative to control; format: functional
Candida albicans [21] = experiment: Inhibition of biofilm formation in Candida albicans 0304103 at 0.125 ug/ml incubated for 24 hrs by microplate based analysis relative to control; format: functional
Candida albicans [22] = experiment: Inhibition of biofilm formation in Candida albicans 0304103 at 2 ug/ml incubated for 24 hrs in presence of fluconazole by microplate based analysis relative to control; format: functional
Candida albicans [23] = experiment: Antifungal activity against Candida albicans 0304103 assessed as inhibition of filamentation at 2 ug/ml incubated for 3 hrs by inverted cell microscope based analysis; format: functional, organism-based; conditions: dose 2.0 µg/ml
Candida albicans [24] = experiment: Antifungal activity against Candida albicans 0304103 assessed as downregulation of TEC1 expression at 8 ug/ml incubated for 24 hrs in presence of fluconazole by RT-PCR analysis; format: functional, organism-based; conditions: dose 8.0 µg/ml
Candida albicans [25] = experiment: Antifungal activity against Candida albicans 0304103 assessed as downregulation of RLM1 expression at 8 ug/ml incubated for 24 hrs in presence of fluconazole by RT-PCR analysis; format: functional, organism-based; conditions: dose 8.0 µg/ml
Candida albicans [26] = experiment: Antifungal activity against Candida albicans 0304103 assessed as downregulation of APH5 expression at 8 ug/ml incubated for 24 hrs in presence of fluconazole by RT-PCR analysis; format: functional, organism-based; conditions: dose 8.0 µg/ml
Candida albicans [27] = experiment: Antifungal activity against Candida albicans 0304103 assessed as downregulation of GCA1 expression at 8 ug/ml incubated for 24 hrs in presence of fluconazole by RT-PCR analysis; format: functional, organism-based; conditions: dose 8.0 µg/ml
Candida albicans [28] = experiment: Antifungal activity against Candida albicans 0304103 assessed as downregulation of GCA2 expression at 8 ug/ml incubated for 24 hrs in presence of fluconazole by RT-PCR analysis; format: functional, organism-based; conditions: dose 8.0 µg/ml
Candida albicans [29] = experiment: Antifungal activity against Candida albicans 0304103 assessed as downregulation of CDR1 expression at 16 ug/ml incubated for 24 hrs in presence of fluconazole by RT-PCR analysis; format: functional, organism-based; conditions: dose 16.0 µg/ml
Candida albicans [30] = experiment: Antifungal activity against Candida albicans 0304103 assessed as downregulation of ERG11 expression at 16 ug/ml incubated for 24 hrs in presence of fluconazole by RT-PCR analysis; format: functional, organism-based; conditions: dose 16.0 µg/ml
Candida albicans [31] = experiment: Antifungal activity against Candida albicans 0304103 assessed as reversal of ERG11 expression by measuring fold change at 16 ug/ml incubated for 24 hrs in presence of fluconazole by RT-PCR analysis (reference value: 8.8); format: functional; conditions: dose 16 µg/ml
[32] = Effective permeability of the compound across blood brain barrier incubated for 12 hrs by PAMPA assay; format: ADME; conditions: read-out: Peff
Cryptococcus neoformans [33] = experiment: In vivo antifungal activity against Cryptococcus neoformans H99 infected in cryptococcal meningitis ICR mouse model assessed as reduction in fungal burden in brain at 5 mg/kg, ip measured for 5 days (reference value: 8.18 log10CFU/g); format: functional; conditions: time 5 day
Candida albicans [34] = experiment: In vivo antifungal activity against Candida albicans 0304103 infected in […] ICR mouse model assessed as reduction in fungal burden in kidney at 5 mg/kg, ip measured for 5 days (reference value: 7.37 log10CFU/g); format: functional; conditions: time 5 day
Candida albicans [35] = experiment: In vivo antifungal activity against Candida albicans 0304103 infected in […] ICR mouse model assessed as reduction in fungal burden in kidney at 5 mg/kg, ip measured for 5 days in presence of fluconazole (reference value: 7.37 log10CFU/g); format: functional; conditions: time 5 day
Candida albicans [36] = experiment: In vivo antifungal activity against Candida albicans SC5314 infected in […] ICR mouse model assessed as reduction in fungal burden in kidney at 10 mg/kg, ip measured for 5 days; format: functional, organism-based; conditions: time 5.0 day
Candida albicans [37] = experiment: In vivo antifungal activity against Candida albicans SC5314 infected in […] ICR mouse model assessed as reduction in fungal burden in kidney at 10 mg/kg, ip measured for 5 days in presence of fluconazole; format: functional; conditions: time 5 day

MIC80 (Cryptococcus neoformans [1]): 2 µg/mL (≈ 8.61 µM)
MIC80 (Candida albicans [2]): 0.5 µg/mL (≈ 2.15 µM)
SMILES: O=C1c2ccccc2-c2nccc3ccnc1c23 [SAMPANGINE]

MIC80 (Candida albicans [3]): > 64 µg/mL
MIC80 (Candida albicans [4]): > 64 µg/mL
MIC80 (Candida tropicalis [5]): > 64 µg/mL
MIC80 (Nakaseomyces glabratus): > 64 µg/mL
MIC80 (Cryptococcus neoformans [6]): 4 µg/mL (≈ 14.5 µM)
MIC80 (Cryptococcus neoformans [7]): 2 µg/mL (≈ 7.24 µM)
MIC80 [8]: 16 µg/mL (≈ 57.9 µM)
MIC80 (Candida albicans [9]): 8 µg/mL
SMILES: CCCc1noc2c1C(=O)c1sccc1/C2=N/OC
fractional inhibitory concentration index (FICI) (Candida albicans [10]): 0.25

MIC80 (Candida albicans [3]): > 64 µg/mL
MIC80 (Candida albicans [4]): 32 µg/mL (≈ 129 µM)
MIC80 (Candida tropicalis [5]): 16 µg/mL (≈ 64.4 µM)
MIC80 (Nakaseomyces glabratus): > 64 µg/mL
MIC80 (Cryptococcus neoformans [6]): 0.016 µg/mL (≈ 0.0644 µM)
MIC80 (Cryptococcus neoformans [7]): 0.13 µg/mL (≈ 0.524 µM)
MIC80 [8]: 4 µg/mL (≈ 16.1 µM)
MIC80 (Candida albicans [9]): 2 µg/mL
Papp at 12 h [32]: 8.34 ×10⁻⁶ cm/s
SMILES: CO/N=C1/c2ccsc2C(=O)c2c(C)noc21
fractional inhibitory concentration index (FICI) (Candida albicans [10]): 0.078
Activity (Candida tropicalis [11]): inactive
Activity (Pichia kudriavzevii): inactive
Activity (Candida parapsilosis): inactive
Activity (Clavispora lusitaniae): inactive
Activity ([Candida] auris): inactive
Activity (Cryptococcus neoformans [12]): Dose-Dependent Effect
Activity (Cryptococcus neoformans [13]): 6.22 log10CFU/ml
Activity (Candida albicans [14]): Active
Activity (Candida albicans [15]): Active
Activity (Candida albicans [16]): 6.13 log10CFU/ml
Activity (Cryptococcus neoformans [17]): Active
Activity (Cryptococcus neoformans [18]): 100%
inhibition at 0.063 µg/mL (Cryptococcus neoformans [19]): > 90%
inhibition at 2 µg/mL (Candida albicans [20]): ~30%
inhibition at 0.125 µg/mL (Candida albicans [21]): 40%
inhibition at 2 µg/mL (Candida albicans [22]): 50%
Activity (Candida albicans [23]): Active
Activity (Candida albicans [24]): Active
Activity (Candida albicans [25]): Active
Activity (Candida albicans [26]): Active
Activity (Candida albicans [27]): Active
Activity (Candida albicans [28]): Active
Activity (Candida albicans [29]): Active
Activity (Candida albicans [30]): Active
fold change (FC) (Candida albicans [31]): 0.8
Activity (Cryptococcus neoformans [33]): 7.96 log10CFU/g
Activity (Candida albicans [34]): 5.73 log10CFU/g
Activity (Candida albicans [35]): 5.31 log10CFU/g
Activity (Candida albicans [36]): Active
Activity (Candida albicans [37]): 5.02 log10CFU/g

MIC80 (Candida albicans [3]): > 64 µg/mL
MIC80 (Candida albicans [4]): > 64 µg/mL
MIC80 (Candida tropicalis [5]): > 64 µg/mL
MIC80 (Nakaseomyces glabratus): > 64 µg/mL
MIC80 (Cryptococcus neoformans [6]): 2 µg/mL (≈ 8.61 µM)
MIC80 (Cryptococcus neoformans [7]): 1 µg/mL (≈ 4.31 µM)
MIC80 [8]: 8 µg/mL (≈ 34.5 µM)
MIC80 (Candida albicans [9]): 4 µg/mL
SMILES: CO/N=C1/c2ccoc2C(=O)c2c(C)noc21
fractional inhibitory concentration index (FICI) (Candida albicans [10]): 0.094
